pIC50, pKi: −log10 of the molar value.
Assays:
hMeprin α = target: T1, hMeprin α (Homo sapiens, UniProt Q16819); experiment: Enzymatic assay, quenched peptide substrate cleavage, method B; assay type: biochemical; conditions: geometric mean (geometric SD factor in parentheses); for pKi: Morrison's equation, read-out: Meprin alpha Ki(app); for pIC50: read-out: Meprin alpha IC50
T1 sequence (Q16819 66-746): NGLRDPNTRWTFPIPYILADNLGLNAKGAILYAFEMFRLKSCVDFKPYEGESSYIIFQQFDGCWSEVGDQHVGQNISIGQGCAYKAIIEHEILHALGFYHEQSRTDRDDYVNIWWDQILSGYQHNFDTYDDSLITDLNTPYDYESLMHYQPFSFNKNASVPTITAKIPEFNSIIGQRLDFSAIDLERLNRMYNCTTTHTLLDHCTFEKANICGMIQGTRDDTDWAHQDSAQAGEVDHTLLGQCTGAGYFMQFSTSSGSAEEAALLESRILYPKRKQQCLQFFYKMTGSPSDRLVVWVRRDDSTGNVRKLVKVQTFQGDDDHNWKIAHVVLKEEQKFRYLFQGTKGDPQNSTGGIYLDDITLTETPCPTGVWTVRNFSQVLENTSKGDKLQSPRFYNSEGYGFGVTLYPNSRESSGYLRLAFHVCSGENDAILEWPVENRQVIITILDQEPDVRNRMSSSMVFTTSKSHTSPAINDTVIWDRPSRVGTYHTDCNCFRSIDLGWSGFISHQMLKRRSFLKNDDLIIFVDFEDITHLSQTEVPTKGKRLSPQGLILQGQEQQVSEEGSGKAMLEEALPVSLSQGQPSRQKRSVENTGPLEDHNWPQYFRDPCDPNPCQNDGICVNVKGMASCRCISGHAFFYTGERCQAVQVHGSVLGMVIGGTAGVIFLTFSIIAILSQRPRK
Experimental: (§1) The determination of enzymatic activity was based on the cleavage of internally quenched peptide substrates. A typical assay of 250 μl total volume measured in black 96 well plates consisted of 100 μl buffer, 50 μl enzyme at a final concentration of 5e-8 M to 2e-10 M, 50 μl substrate (0.15 to 80 μM, in buffer, 0.5% DMSO) and 50 μl inhibitor solution (in buffer, 1% DMSO). In case of 125 μl assay volume (black 96 half area well plates) all volumes were cut in half. Enzymatic activity of ADAMs was measured in 384 well plates with 60 μl total assay volume consisting of 20 μl inhibitor, 20 μl buffer, 10 μl enzyme and 10 μl substrate.
(§2) Based on method B Ki^(app) values were determined using Morrison's equation. All measurements were performed using a fluorescence plate reader (FLUOSTAR OPTIMA, BMG Labtech) at 30° C. The kinetic parameters were determined at least in duplicates on separate days. The excitation/emission wavelength was 340/420 nm. The kinetic data was evaluated using GRAFIT software (version 7.0.3, Erithacus Software).

hMeprin β = target: T2, hMeprin β (Homo sapiens, UniProt Q16820); experiment: as above; assay type: biochemical; conditions: geometric mean (geometric SD factor in parentheses); for pKi: Morrison's equation, read-out: Meprin beta Ki(app); for pIC50: read-out: Meprin beta IC50
T2 sequence (Q16820 62-701): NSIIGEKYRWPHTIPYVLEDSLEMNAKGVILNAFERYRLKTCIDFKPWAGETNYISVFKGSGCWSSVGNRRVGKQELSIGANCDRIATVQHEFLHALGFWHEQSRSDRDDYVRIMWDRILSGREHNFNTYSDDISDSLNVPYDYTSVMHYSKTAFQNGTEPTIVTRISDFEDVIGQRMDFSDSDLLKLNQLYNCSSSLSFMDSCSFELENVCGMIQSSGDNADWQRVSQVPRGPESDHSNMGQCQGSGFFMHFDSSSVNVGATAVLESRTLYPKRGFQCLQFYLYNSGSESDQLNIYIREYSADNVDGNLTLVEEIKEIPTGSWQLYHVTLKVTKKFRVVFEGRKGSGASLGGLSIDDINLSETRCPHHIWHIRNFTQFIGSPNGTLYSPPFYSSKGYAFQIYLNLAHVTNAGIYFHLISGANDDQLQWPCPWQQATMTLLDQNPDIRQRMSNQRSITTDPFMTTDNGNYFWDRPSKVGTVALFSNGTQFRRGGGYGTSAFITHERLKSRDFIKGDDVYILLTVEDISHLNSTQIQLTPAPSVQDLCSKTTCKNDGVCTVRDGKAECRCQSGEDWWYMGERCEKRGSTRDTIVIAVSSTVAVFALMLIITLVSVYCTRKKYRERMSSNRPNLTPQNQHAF
Experimental: as §1, §2

Row | SMILES | pKi (hMeprin α) | pIC50 (hMeprin α) | pKi (hMeprin β) | pIC50 (hMeprin β)
1 | O=C(Cc1c(-c2cccc(C(=O)O)c2)n[nH]c1-c1ccccc1)NO [Example 51, 3-[4-[2-(Hydroxyamino)-2-oxo-ethyl]-5-phenyl-1H-pyrazol-3-yl]benzoic acid] | 8.10 | 8.10 | 7.33 | 7.28
2 | O=C(CCc1c(-c2ccccc2)nn(Cc2ccc(Cl)c(O)c2F)c1-c1ccccc1)NO [Example 72, 3-[1-[(4-chloro-2-fluoro-3-hydroxy-phenyl)methyl]-3,5-diphenyl-pyrazol-4-yl]propanehydroxamic acid] | 9.82 | 9.66 | 5.93 | 5.92
3 | O=C(Cc1c(-c2ccc(Cl)c(O)c2F)n[nH]c1-c1ccc(Cl)c(O)c1F)NO [Example 60, 2-[3,5-Bis(4-chloro-2-fluoro-3-hydroxy-phenyl)-1H-pyrazol-4-yl]ethanehydroxamic acid] | 8.40 | 8.40 | 7.85 | 7.85
4 | O=C(Cn1c(-c2ccccc2C(=O)O)nc2ccccc21)NO [Example 17, 2-[1-[2-(Hydroxyamino)-2-oxo-ethyl]benzimidazol-2-yl]benzoic acid] | 5.86 | 5.85 | 4.88 | 4.86
5 | O=C(Cn1c(-c2ccc(Cl)c(O)c2F)nc2cc(C(=O)O)ccc21)NO [Example 21, 2-(4-Chloro-2-fluoro-3-hydroxy-phenyl)-1-[2-(hydroxyamino)-2-oxo-ethyl]benzimidazole-5-carboxylic acid] | 6.36 | 6.35 | 6.92 | 6.90
6 | O=C(Cn1c(-c2cccc(C(=O)O)c2)nc2ccccc21)NO [Example 18, 3-[1-[2-(Hydroxyamino)-2-oxo-ethyl]benzimidazol-2-yl]benzoic acid] | 7.21 | 7.20 | 6.80 | 6.79
7 | O=C(Cc1c(-c2c[nH]nc2C(F)(F)F)n[nH]c1-c1ccccc1)NO [Example 70, 2-[5-Phenyl-3-[3-(trifluoromethyl)-1H-pyrazol-4-yl]-1H-pyrazol-4-yl]ethanehydroxamic acid] | 8.70 | 8.70 | 7.06 | 7.05
8 | O=C(NO)C1c2ccccc2-c2[nH]nc(-c3ccccc3)c21 (stereo not shown) [Example 67, 3-Phenyl-1,4-dihydroindeno[1,2-c]pyrazole-4-carbohydroxamic acid] | 7.41 | 7.40 | 5.78 | 5.75
9 | O=C(Cn1c(-c2ccc(C(=O)O)cc2)nc2ccccc21)NO [Example 19, 4-[1-[2-(Hydroxyamino)-2-oxo-ethyl]benzimidazol-2-yl]benzoic acid] | 7.15 | 7.12 | 6.92 | 6.90
10 | O=C(Cc1c(-c2cccc(-c3nnn[nH]3)c2)n[nH]c1-c1ccccc1)NO [Example 71, 2-[5-Phenyl-3-[3-(1H-tetrazol-5-yl)phenyl]-1H-pyrazol-4-yl]ethanehydroxamic acid] | 9.15 | 9.15 | 8.15 | 8.15
11 | O=C(NO)C1Cc2ccccc2-c2[nH]nc(-c3ccccc3)c21 (stereo not shown) [Example 68, 3-Phenyl-4,5-dihydro-1H-benzo[g]indazole-4-carbohydroxamic acid] | 7.21 | 7.21 | 5.60 | 5.59
12 | O=C(Cn1c(-c2ccc(Cl)c(O)c2F)nc2ccc(C(=O)O)cc21)NO [Example 22, 2-(4-Chloro-2-fluoro-3-hydroxy-phenyl)-3-[2-(hydroxyamino)-2-oxo-ethyl]benzimidazole-5-carboxylic acid] | 8.22 | 8.22 | 8.15 | 8.10
13 | O=C(Cc1c(-c2ccc(C(=O)O)cc2)n[nH]c1-c1ccc(C(=O)O)cc1)NO [Example 59, 4-[3-(4-Carboxyphenyl)-4-[2-(hydroxyamino)-2-oxo-ethyl]-1H-pyrazol-5-yl]benzoic acid] | 7.25 | 7.25 | 6.94 | 6.89
14 | O=C(Cc1c(-c2ccc(C(=O)O)cc2)n[nH]c1-c1ccc(Cl)c(O)c1F)NO [Example 65, 4-[5-(4-Chloro-2-fluoro-3-hydroxy-phenyl)-4-[2-(hydroxyamino)-2-oxo-ethyl]-1H-pyrazol-3-yl]benzoic acid] | 8.00 | 8.00 | 7.96 | 7.92
15 | O=C(Cc1c(-c2cccc(C(=O)O)c2)n[nH]c1-c1cc(F)c(O)c(Cl)c1)NO [Example 64, 3-[5-(3-Chloro-5-fluoro-4-hydroxy-phenyl)-4-[2-(hydroxyamino)-2-oxo-ethyl]-1H-pyrazol-3-yl]benzoic acid] | 9.85 | 9.62 | 9.62 | 9.59
16 | O=C(Cc1c(-c2cc(O)no2)n[nH]c1-c1ccccc1)NO [Example 69, 2-[3-(3-Hydroxyisoxazol-5-yl)-5-phenyl-1H-pyrazol-4-yl]ethanehydroxamic acid] | 7.80 | 7.77 | 7.85 | 7.85
17 | O=C(Cc1c(-c2ccc3c(c2)OCO3)n[nH]c1-c1cccc(C(=O)O)c1)NO [Example 61, 3-[3-(1,3-Benzodioxol-5-yl)-4-[2-(hydroxyamino)-2-oxo-ethyl]-1H-pyrazol-5-yl)benzoic acid] | 8.52 | 8.52 | 7.36 | 7.35
18 | O=C(Cc1c(-c2ccccc2)[nH]nc1[C@H]1CC[C@@H](C(=O)O)CC1)NO [Example 75, cis-4-[4-[2-(Hydroxyamino)-2-oxo-ethyl)-5-phenyl-1H-pyrazol-3-yl]cyclohexanecarboxylic acid] | 8.00 | 8.00 | 7.46 | 7.46
19 | N#Cc1ccc(-c2n[nH]c(-c3ccccc3)c2CC(=O)NO)cc1 [Example 56, 2-[3-(4-Cyanophenyl)-5-phenyl-1H-pyrazol-4-yl]ethanehydroxamic acid] | 7.85 | 7.85 | 6.00 | 5.99
20 | O=C(Cn1c(-c2ccc(Cl)c(O)c2F)nc2c(C(=O)O)cccc21)NO [Example 20, 2-(4-Chloro-2-fluoro-3-hydroxy-phenyl)-1-[2-(hydroxyamino)-2-oxo-ethyl]benzimidazole-4-carboxylic acid] | 6.04 | 6.04 | 5.94 | 5.93
21 | O=C(Cc1c(C2CCCC(C(=O)O)C2)n[nH]c1-c1ccccc1)NO (stereo not shown) [Example 74, 3-[4-[2-(Hydroxyamino)-2-oxo-ethyl]-5-phenyl-1H-pyrazol-3-yl]cyclohexanecarboxylic acid] | 9.00 | 9.00 | 7.26 | 7.26
22 | O=C(Cc1c(-c2ccccc2)[nH]nc1[C@H]1CC[C@H](C(=O)O)CC1)NO [Example 76, trans-4-[4-[2-(Hydroxyamino)-2-oxo-ethyl]-5-phenyl-1H-pyrazol-3-yl]cyclohexanecarboxylic acid] | 7.92 | 7.92 | 7.01 | 7.01
